How the values were obtained:
Assay type in all cases: in vivo
Conditions in all cases: solo application, 20 DAT
Stellaria media = assay: Greenhouse pre-emergence herbicidal activity, STEME
Method: (§1) The test plants have been seeded, separately for each species, in plastic containers in sandy loamy soil containing 5% of organic matter.
(§2) The containers were irrigated gently to promote germination and growth and subsequently covered with transparent plastic hoods until the plants had rooted.
(§3) The plants have been cultivated due to their individual requirements at 10-25° C. and 20-35° C. The plants were irrigated due to their necessity.
(§4) The racemic mixture (±)-2-exo-(2-Methylbenzyloxy)-1-methyl-4-isopropyl-7-oxabicyclo[2.2.1]heptane was used as herbicide A and formulated as emulsifiable concentrates with an active ingredient concentration of 50 g/l, 100 g/l or 750 g/l respectively.
(§5) Quinmerac (herbicide B.2) was used as a wettable powder (WP) formulation having an active ingredient concentration of 50%.
(§6) In the following experiments, the herbicidal activity for the individual herbicidal compositions (solo and mixture applications) was assessed 20 days after treatment (DAT).
(§7) The evaluation for the damage on undesired weeds caused by the chemical compositions was carried out using a scale from 0 to 100%, compared to the untreated control plants. Here, 0 means no damage and 100 means complete destruction of the plants.
(§8) The plants used in the greenhouse experiments belonged to the following species:
(§9) where X=effect in percent using herbicide A at an application rate a; • Y=effect in percent using herbicide B at application rate b; • E=expected effect (in %) of herbicide A+ herbicide B at application rates a+b.
(§10) The value E corresponds to the effect (plant damage or injury) which is to be expected if the activity of the individual compounds is additive. If the observed effect is higher than the value E calculated according to the Colby equation, a synergistic effect is present.
(§11) Table 1 below relates to the herbicidal activity, in greenhouse trials, of the individual actives and the combinations applied at different rates and ratios, in pre-emergence application at 20 days after treatment (DAT).

Abutilon theophrasti = assay: Greenhouse pre-emergence herbicidal activity, ABUTH
Method: as §1, §2, §3, §4, §5, §6, §7, §8, §9, §10, §11

Setaria viridis = assay: Greenhouse pre-emergence herbicidal activity, SETVI
Method: as §1, §2, §3, §4, §5, §6, §7, §8, §9, §10, §11

Polygonum convolvulus = assay: Greenhouse pre-emergence herbicidal activity, POLCO
Method: as §1, §2, §3, §4, §5, §6, §7, §8, §9, §10, §11

Lolium multiflorum = assay: Greenhouse pre-emergence herbicidal activity, LOLMU
Method: as §1, §2, §3, §4, §5, §6, §7, §8, §9, §10, §11

Avena fatua = assay: Greenhouse pre-emergence herbicidal activity, AVEFA
Method: as §1, §2, §3, §4, §5, §6, §7, §8, §9, §10, §11

Digitaria sanguinalis = assay: Greenhouse pre-emergence herbicidal activity, DIGSA
Method: as §1, §2, §3, §4, §5, §6, §7, §8, §9, §10, §11

Alopecurus myosuroides = assay: Greenhouse pre-emergence herbicidal activity, ALOMY
Method: as §1, §2, §3, §4, §5
(§12) In the following experiments, the herbicidal activity for the individual herbicidal compositions (solo and mixture applications) was assessed 20 days after treatment (DAT). […]
(§13) The value E corresponds to the effect (plant damage or injury) which is to be expected if the activity of the individual compounds is additive. If the observed effect is higher than the value E calculated according to the Colby equation, a synergistic effect is present. […]

Papaver rhoeas = assay: Greenhouse pre-emergence herbicidal activity, PAPRH
Method: as §1, §2, §3, §4, §5, §12, §13

Anthemis arvensis = assay: Greenhouse pre-emergence herbicidal activity, ANTAR
Method: as §1, §2, §3, §4, §5, §12, §13

Geranium dissectum = assay: Greenhouse pre-emergence herbicidal activity, GERDI
Method: as §1, §2, §3, §4, §5, §6, §7, §8, §9, §10, §11

Echinochloa crus-galli = assay: Greenhouse pre-emergence herbicidal activity, ECHCG
Method: as §1, §2, §3, §4, §5, §6, §7, §8, §9, §10, §11

Amaranthus retroflexus = assay: Greenhouse pre-emergence herbicidal activity, AMARE
Method: as §1, §2, §3, §4, §5, §12, §13

Sorghum halepense = assay: Greenhouse pre-emergence herbicidal activity, SORHA
Method: as §1, §2, §3, §4, §5, §6, §7, §8, §9, §10, §11

Cc1cnc2c(C(=O)O)c(Cl)ccc2c1 [quinmerac, 7-chloro-3-methylquinoline-8-carboxylic acid]
herbicidal activity (Stellaria media; 50 g ai/ha): 0% | herbicidal activity (Stellaria media; 100 g ai/ha): 0% | herbicidal activity (Abutilon theophrasti; 50 g ai/ha): 0% | herbicidal activity (Abutilon theophrasti; 200 g ai/ha): 0% | herbicidal activity (Setaria viridis; 31.25 g ai/ha): 0% | herbicidal activity (Setaria viridis; 62.5 g ai/ha): 0% | herbicidal activity (Polygonum convolvulus; 100 g ai/ha): 0% | herbicidal activity (Polygonum convolvulus; 200 g ai/ha): 0% | herbicidal activity (Lolium multiflorum; 200 g ai/ha): 25% | herbicidal activity (Lolium multiflorum; 250 g ai/ha): 0% | herbicidal activity (Avena fatua; 25 g ai/ha): 0% | herbicidal activity (Avena fatua; 50 g ai/ha): 0% | herbicidal activity (Avena fatua; 125 g ai/ha): 0% | herbicidal activity (Avena fatua; 250 g ai/ha): 0% | herbicidal activity (Digitaria sanguinalis; 31.25 g ai/ha): 0% | herbicidal activity (Digitaria sanguinalis; 62.5 g ai/ha): 0% | herbicidal activity (Digitaria sanguinalis; 125 g ai/ha): 0% | herbicidal activity (Digitaria sanguinalis; 250 g ai/ha): 0% | herbicidal activity (Alopecurus myosuroides; 250 g ai/ha): 0% | herbicidal activity (Papaver rhoeas; 31.25 g ai/ha): 0% | herbicidal activity (Anthemis arvensis; 250 g ai/ha): 0% | herbicidal activity (Geranium dissectum; 31.25 g ai/ha): 0% | herbicidal activity (Geranium dissectum; 62.5 g ai/ha): 0% | herbicidal activity (Geranium dissectum; 200 g ai/ha): 0% | herbicidal activity (Geranium dissectum; 250 g ai/ha): 50% | herbicidal activity (Echinochloa crus-galli; 31.25 g ai/ha): 0% | herbicidal activity (Echinochloa crus-galli; 62.5 g ai/ha): 0% | herbicidal activity (Amaranthus retroflexus; 250 g ai/ha): 0% | herbicidal activity (Sorghum halepense; 62.5 g ai/ha): 0% | herbicidal activity (Sorghum halepense; 200 g ai/ha): 25%

(±)-2-exo-(2-Methylbenzyloxy)-1-methyl-4-isopropyl-7-oxabicyclo[2.2.1]heptane [herbicide A]
herbicidal activity (Stellaria media; 62.5 g ai/ha): 0% | herbicidal activity (Stellaria media; 125 g ai/ha): 40% | herbicidal activity (Abutilon theophrasti; 62.5 g ai/ha): 25% | herbicidal activity (Abutilon theophrasti; 250 g ai/ha): 65% | herbicidal activity (Setaria viridis; 12.5 g ai/ha): 90% | herbicidal activity (Setaria viridis; 25 g ai/ha): 95% | herbicidal activity (Polygonum convolvulus; 125 g ai/ha): 0% | herbicidal activity (Polygonum convolvulus; 250 g ai/ha): 0% | herbicidal activity (Lolium multiflorum; 100 g ai/ha): 70% | herbicidal activity (Lolium multiflorum; 250 g ai/ha): 98% | herbicidal activity (Avena fatua; 31.25 g ai/ha): 0% | herbicidal activity (Avena fatua; 50 g ai/ha): 0% | herbicidal activity (Avena fatua; 62.5 g ai/ha): 30% | herbicidal activity (Avena fatua; 100 g ai/ha): 10% | herbicidal activity (Digitaria sanguinalis; 12.5 g ai/ha): 0% | herbicidal activity (Digitaria sanguinalis; 25 g ai/ha): 0% | herbicidal activity (Digitaria sanguinalis; 50 g ai/ha): 70% | herbicidal activity (Digitaria sanguinalis; 100 g ai/ha): 90% | herbicidal activity (Alopecurus myosuroides; 100 g ai/ha): 95% | herbicidal activity (Papaver rhoeas; 12.5 g ai/ha): 70% | herbicidal activity (Anthemis arvensis; 100 g ai/ha): 0% | herbicidal activity (Geranium dissectum; 12.5 g ai/ha): 0% | herbicidal activity (Geranium dissectum; 25 g ai/ha): 0% | herbicidal activity (Geranium dissectum; 100 g ai/ha): 95% | herbicidal activity (Geranium dissectum; 250 g ai/ha): 85% | herbicidal activity (Echinochloa crus-galli; 12.5 g ai/ha): 95% | herbicidal activity (Echinochloa crus-galli; 25 g ai/ha): 98% | herbicidal activity (Amaranthus retroflexus; 100 g ai/ha): 30% | herbicidal activity (Sorghum halepense; 25 g ai/ha): 98% | herbicidal activity (Sorghum halepense; 250 g ai/ha): 95%

Reference: patent publication US11206827B2, “Herbicidal composition comprising cinmethylin and specific quinolinecarboxylic acids” (BASF Agro B.V., priority 2015, dated 2021)
